Experimental data reported in US10954269B2, “Anti-inflammatory tripeptides” (Dr. August Wolff Gmbh & Co. KG Arzneimittel, priority 2013, dated 2021).

Key:
Details in all cases: substance 10^−9M
primary human T-cells = assay: Cytokine secretion on protein level in activated primary human T-cells (13-plex FACS / Luminex, supernatant); type: cell-based
Method: (§1) Primary T-cells were isolated from peripheral blood from healthy volunteers and from secondary lymphatic organs from naïve C57BL/6 mice, respectively. The cells were stimulated with phorbol-12-myristate-13-acetate (PMA)/Ionomycin and interferon-gamma (IFN-γ), respectively, for 48 h to activate the cells. The activated cells release pro-inflammatory cytokines. In parallel a human (HaCaT) keratinocyte cell line was activated with PMA/Ionomycin and IFN-γ, respectively, too. […] At the same time release of anti-inflammatory IL-10 was inhibited. Two days after addition of PMA/Ionomycin and IFN-γ, respectively, the induction of IL-1 secretion was determined in the supernatant for proving that the cells are activated. […] The anti-inflammatory properties of the tripeptides were determined 48 h and 72 h following stimulation. A 13-plex-system based FACS analysis was used for showing the reduced secretion of pro-inflammatory cytokines in the supernatant. Data for IL-1, IL-2, IL-6, IL-12p70 IL-17, IFN-γ and TNF-α are considered to be most relevant. Thus, analysis of the anti-inflammatory properties of the tripeptides is preferably based on the results obtained for these analytes. […] Using this method the gene expression of pro-inflammatory markers like IL-6, IL-17, IFN-γ and TNF-α was determined.
(§2) In a third experiment murine and human T cells and HaCaT cells were stimulated with PMA/Ionomycin and treated with Examples 14, 15, 16 and 17 at 10^−7 M, 10^−9 M and 10^−11 M. Cytokine concentrations (IFN-γ, IL-17 and IL-10 for T cells and IFN-γ for HaCat) were assessed in the supernatants using the Luminex technology. Expression of genes coding for Il-1β, IL-6 and TNF-α was determined. […] Moreover, concentrations of pro-inflammatory cytokines IFN-γ and IL-17 was reduced in the supernatants whereas the concentration of anti-inflammatory cytokine IL-10 was increased. […]
(§3) For the biological assay two human cell lines of different origin were chosen to allow for translation of the results obtained. A HaCaT cell is a cell type belonging to an immortal human keratinocyte line used in scientific research. Its use in research allows for the characterization of human keratinocyte using a model that is reproducible and representing a human epithelial cell line. In contrast human T-lymphocytes (T-cells) are a type of lymphocyte (itself a type of white blood cell) that play a central role in cell-mediated inflammation/immunity.

[1] = tested on: human keratinocyte cell line (HaCaT); assay: Cytokine secretion on protein level in activated human keratinocyte cell line HaCaT (13-plex FACS / Luminex, supernatant); type: cell-based
Method: as §1, §2, §3

primary murine T-cells = assay: Cytokine secretion on protein level in activated primary murine T-cells (13-plex FACS / Luminex, supernatant); type: cell-based, C57BL/6 mice
Method: as §1
In a third experiment murine and human T cells and HaCaT cells were stimulated with PMA/Ionomycin and treated with Examples 14, 15, 16 and 17 at 10^−7 M, 10^−9 M and 10^−11 M. Cytokine concentrations (IFN-γ, IL-17 and IL-10 for T cells and IFN-γ for HaCat) were assessed in the supernatants using the Luminex technology. Expression of genes coding for Il-1β, IL-6 and TNF-α was determined. […] Moreover, concentrations of pro-inflammatory cytokines IFN-γ and IL-17 was reduced in the supernatants whereas the concentration of anti-inflammatory cytokine IL-10 was increased.
The anti-inflammatory and immunomodulatory effects of selected examples of the present invention were compared with common immunosuppressants. Thus, cells activated with PMA/Ionomycin and IFN-γ, respectively, were stimulated with MMF or dexamethasone. Following stimulation the secretion of pro-inflammatory cytokines was analyzed on protein and gene level (Table 9 and FIGS. 4-6).

[2] = primary human T-cells stimulated with IFN-γ
[3] = primary human T-cells stimulated with PBS
[4] = primary human T-cells stimulated with PMA/Ionomycin
[5] = HaCaT stimulated with PMA/Ionomycin
[6] = primary murine T-cells stimulated with IFN-γ
[7] = primary murine T-cells stimulated with PBS
[8] = primary murine T-cells stimulated with PMA/Ionomycin

COc1c(C)c2c(c(O)c1C/C=C(\C)CCC(=O)OCCN1CCOCC1)C(=O)OC2 [MMF, mycophenolate mofetil, reference compound]
IL-1 cytokine concentration (primary human T-cells; [2]): 0 pg/mL
IL-2 cytokine concentration (primary human T-cells; [2]): 0 pg/mL
IL-4 cytokine concentration (primary human T-cells; [2]): 0 pg/mL
IL-5 cytokine concentration (primary human T-cells; [2]): 0 pg/mL
IL-6 cytokine concentration (primary human T-cells; [2]): 62.15 pg/mL
IL-9 cytokine concentration (primary human T-cells; [2]): 0 pg/mL
IL-10 cytokine concentration (primary human T-cells; [2]): 0 pg/mL
IL-12 cytokine concentration (primary human T-cells; [2]): 0 pg/mL
IL-13 cytokine concentration (primary human T-cells; [2]): 0 pg/mL
IL-17 cytokine concentration (primary human T-cells; [2]): 0 pg/mL
IL-22 cytokine concentration (primary human T-cells; [2]): 0 pg/mL
TNF-α cytokine concentration (primary human T-cells; [2]): 0 pg/mL
IFN-γ cytokine concentration (primary human T-cells; [3]): 0 pg/mL
IL-1 cytokine concentration (primary human T-cells; [3]): 0 pg/mL
IL-2 cytokine concentration (primary human T-cells; [3]): 39.68 pg/mL
IL-4 cytokine concentration (primary human T-cells; [3]): 0 pg/mL
IL-5 cytokine concentration (primary human T-cells; [3]): 0 pg/mL
IL-6 cytokine concentration (primary human T-cells; [3]): 94.62 pg/mL
IL-9 cytokine concentration (primary human T-cells; [3]): 28.13 pg/mL
IL-10 cytokine concentration (primary human T-cells; [3]): 79.26 pg/mL
IL-12 cytokine concentration (primary human T-cells; [3]): 0 pg/mL
IL-13 cytokine concentration (primary human T-cells; [3]): 79.09 pg/mL
IL-17 cytokine concentration (primary human T-cells; [3]): 71.42 pg/mL
IL-22 cytokine concentration (primary human T-cells; [3]): 0 pg/mL
TNF-a cytokine concentration (primary human T-cells; [3]): 53.91 pg/mL
IFN-γ cytokine concentration (primary human T-cells; [4]): 9491.25 pg/mL
IL-1 cytokine concentration (primary human T-cells; [4]): 505.05 pg/mL
IL-2 cytokine concentration (primary human T-cells; [4]): 1498.52 pg/mL
IL-4 cytokine concentration (primary human T-cells; [4]): 29.49 pg/mL
IL-5 cytokine concentration (primary human T-cells; [4]): 309.88 pg/mL
IL-6 cytokine concentration (primary human T-cells; [4]): 1198.6 pg/mL
IL-9 cytokine concentration (primary human T-cells; [4]): 339.89 pg/mL
IL-10 cytokine concentration (primary human T-cells; [4]): 814.79 pg/mL
IL-12 cytokine concentration (primary human T-cells; [4]): 0 pg/mL
IL-13 cytokine concentration (primary human T-cells; [4]): 1072.09 pg/mL
IL-17 cytokine concentration (primary human T-cells; [4]): 1097.19 pg/mL
IL-22 cytokine concentration (primary human T-cells; [4]): 0 pg/mL
TNF-a cytokine concentration (primary human T-cells; [4]): 3987.21 pg/mL
IL-1 cytokine concentration ([1]; HaCaT stimulated with IFN-γ): 0 pg/mL
IL-2 cytokine concentration ([1]; HaCaT stimulated with IFN-γ): 0 pg/mL
IL-4 cytokine concentration ([1]; HaCaT stimulated with IFN-γ): 33.01 pg/mL
IL-5 cytokine concentration ([1]; HaCaT stimulated with IFN-γ): 0 pg/mL
IL-6 cytokine concentration ([1]; HaCaT stimulated with IFN-γ): 239.05 pg/mL
IL-9 cytokine concentration ([1]; HaCaT stimulated with IFN-γ): 0 pg/mL
IL-10 cytokine concentration ([1]; HaCaT stimulated with IFN-γ): 0 pg/mL
IL-12 cytokine concentration ([1]; HaCaT stimulated with IFN-γ): 0 pg/mL
IL-13 cytokine concentration ([1]; HaCaT stimulated with IFN-γ): 0 pg/mL
IL-17 cytokine concentration ([1]; HaCaT stimulated with IFN-γ): 58.48 pg/mL
IL-22 cytokine concentration ([1]; HaCaT stimulated with IFN-γ): 0 pg/mL
TNF-α cytokine concentration ([1]; HaCaT stimulated with IFN-γ): 0 pg/mL
IFN-γ cytokine concentration ([1]; HaCaT stimulated with PBS): 0 pg/mL
IL-1 cytokine concentration ([1]; HaCaT stimulated with PBS): 0 pg/mL
IL-2 cytokine concentration ([1]; HaCaT stimulated with PBS): 0 pg/mL
IL-4 cytokine concentration ([1]; HaCaT stimulated with PBS): 120.89 pg/mL
IL-5 cytokine concentration ([1]; HaCaT stimulated with PBS): 0 pg/mL
IL-6 cytokine concentration ([1]; HaCaT stimulated with PBS): 39.58 pg/mL
IL-9 cytokine concentration ([1]; HaCaT stimulated with PBS): 0 pg/mL
IL-10 cytokine concentration ([1]; HaCaT stimulated with PBS): 33.26 pg/mL
IL-12 cytokine concentration ([1]; HaCaT stimulated with PBS): 0 pg/mL
IL-13 cytokine concentration ([1]; HaCaT stimulated with PBS): 0 pg/mL
IL-17 cytokine concentration ([1]; HaCaT stimulated with PBS): 0 pg/mL
IL-22 cytokine concentration ([1]; HaCaT stimulated with PBS): 0 pg/mL
TNF-α cytokine concentration ([1]; HaCaT stimulated with PBS): 0 pg/mL
IFN-γ cytokine concentration [1, 5]: 0 pg/mL
IL-1 cytokine concentration [1, 5]: 0 pg/mL
IL-2 cytokine concentration [1, 5]: 0 pg/mL
IL-4 cytokine concentration [1, 5]: 98.71 pg/mL
IL-5 cytokine concentration [1, 5]: 0 pg/mL
IL-6 cytokine concentration [1, 5]: 116.51 pg/mL
IL-9 cytokine concentration [1, 5]: 0 pg/mL
IL-10 cytokine concentration [1, 5]: 66.23 pg/mL
IL-12 cytokine concentration [1, 5]: 0 pg/mL
IL-13 cytokine concentration [1, 5]: 0 pg/mL
IL-17 cytokine concentration [1, 5]: 0 pg/mL
IL-22 cytokine concentration [1, 5]: 0 pg/mL
TNF-α cytokine concentration [1, 5]: 0 pg/mL
IL-1 cytokine concentration (primary murine T-cells; [6]): 100.02 pg/mL
IL-2 cytokine concentration (primary murine T-cells; [6]): 79.63 pg/mL
IL-4 cytokine concentration (primary murine T-cells; [6]): 59.48 pg/mL
IL-5 cytokine concentration (primary murine T-cells; [6]): 254.61 pg/mL
IL-6 cytokine concentration (primary murine T-cells; [6]): 111.95 pg/mL
IL-10 cytokine concentration (primary murine T-cells; [6]): 936.45 pg/mL
IL-13 cytokine concentration (primary murine T-cells; [6]): 0 pg/mL
IL-17 cytokine concentration (primary murine T-cells; [6]): 61.58 pg/mL
IL-21 cytokine concentration (primary murine T-cells; [6]): 0 pg/mL
IL-22 cytokine concentration (primary murine T-cells; [6]): 55.98 pg/mL
IL-27 cytokine concentration (primary murine T-cells; [6]): 40.8 pg/mL
TNF-α cytokine concentration (primary murine T-cells; [6]): 33.64 pg/mL
IFN-γ cytokine concentration (primary murine T-cells; [7]): 0 pg/mL
IL-1 cytokine concentration (primary murine T-cells; [7]): 62.31 pg/mL
IL-2 cytokine concentration (primary murine T-cells; [7]): 100.77 pg/mL
IL-4 cytokine concentration (primary murine T-cells; [7]): 61.12 pg/mL
IL-5 cytokine concentration (primary murine T-cells; [7]): 337.89 pg/mL
IL-6 cytokine concentration (primary murine T-cells; [7]): 90.56 pg/mL
IL-10 cytokine concentration (primary murine T-cells; [7]): 745.12 pg/mL
IL-13 cytokine concentration (primary murine T-cells; [7]): 0 pg/mL
IL-17 cytokine concentration (primary murine T-cells; [7]): 0 pg/mL
IL-21 cytokine concentration (primary murine T-cells; [7]): 0 pg/mL
IL-22 cytokine concentration (primary murine T-cells; [7]): 90.45 pg/mL
IL-27 cytokine concentration (primary murine T-cells; [7]): 80.11 pg/mL
TNF-α cytokine concentration (primary murine T-cells; [7]): 88.47 pg/mL
IFN-γ cytokine concentration (primary murine T-cells; [8]): 1808.99 pg/mL
IL-1 cytokine concentration (primary murine T-cells; [8]): 158.59 pg/mL
IL-2 cytokine concentration (primary murine T-cells; [8]): 109.88 pg/mL
IL-4 cytokine concentration (primary murine T-cells; [8]): 64.89 pg/mL
IL-5 cytokine concentration (primary murine T-cells; [8]): 200.98 pg/mL
IL-6 cytokine concentration (primary murine T-cells; [8]): 169.84 pg/mL
IL-10 cytokine concentration (primary murine T-cells; [8]): 995.6 pg/mL
IL-13 cytokine concentration (primary murine T-cells; [8]): 0 pg/mL
IL-17 cytokine concentration (primary murine T-cells; [8]): 67 pg/mL
IL-21 cytokine concentration (primary murine T-cells; [8]): 0 pg/mL
IL-22 cytokine concentration (primary murine T-cells; [8]): 111.98 pg/mL
IL-27 cytokine concentration (primary murine T-cells; [8]): 102.96 pg/mL
TNF-α cytokine concentration (primary murine T-cells; [8]): 50.14 pg/mL
